29 molecules from US4985449A, “N-benzoyl-N-pyridyloxy phenyl urea compounds and pesticide compositions containing them” (Ishihara Sangyo Kaisha Ltd., priority 1986, dated 1991) can be followed below.

One series concerns Diamondback moth. The series is described as follows: Insecticidal test (C-value) against diamondback moth (Test Example 7-I). It is filed as in vivo. As to conditions: Plutella xylostella, 168 h; minimum concentration at which no less than 90% of insects are killed. The text has this: (§1) Each formulation containing an active ingredient was dispersed in water to obtain a dispersion of each active ingredient having a concentration of 10 ppm. Leaves of cabbage were dipped in the respective dispersions for about 10 seconds, and then dried in air. A sheet of moistened filter paper was placed in a Petri dish having a diameter of 9 cm, and the dried leaves of cabbage were put on the filter paper. Larvae of diamondback moth (Plutella xylostella) in second or third instar were released on the leaves, and the Petri dishes were covered and kept in a constant temperature chamber with lightening at a temperature of 26° C. On the 7th day after release, dead insects were counted, and the mortality was calculated by the following equation: […]
(§2) In the same manner as in Test Examples 2 and 3, insecticidal tests against diamondback moth and common cutworm were conducted with respect to each compound, and the minimum concentrations at which no less than 90% of insects are killed (hereinafter referred to as C-value), were obtained.

A short description of series [1]: Residual test in soil (Test Example 7-III). The conditions noted are these: upland volcanic ash soil, irrigated condition; 5 ppm; 20 days; 30° C. Here is the method:
Upland soil (volcanic ash soil) was screened through a sieve with a mesh size of 5 mm, and 20 g by dry weight basis of the soil was put into a 100 ml Erlenmeyer flask. Then, distilled water was introduced to simulate an irrigated condition with a water depth of 1 cm. An aluminum foil was put on the top of the flask, and the flask was left to stand still for 1 week in an incubator (dark place) at 30° C.
0.5 ml of a 200 ppm dispersion in acetone of each compound (100 μg) was added to the flask by means of a pipet (to a concentration of 5 ppm). The flask was closed and thoroughly shaked, and the soil attached to the closure was washed into the flask with a small amount of water. Then, the top of the flask was covered with an aluminum foil, and the flask was subjected to incubation in a growth cabinet (30° C., humidity: 60%, continuously lighted with a fluorescent lamp with 9,000 lux). 20 Days later, the total 20 g of the soil was subjected to analysis, and the remaining amount of the compound was measured.

The subject of another series is Common cutworm. The series is described as follows: Insecticidal test (C-value) against common cutworm (Test Example 7-I). As to conditions: Spodoptera litura, 168 h; minimum concentration at which no less than 90% of insects are killed. It is filed as in vivo.
Source text: as §1
(§3) The tests were conducted in the same manner as in Test Example 2 except that larvae of common cutworm (Spodoptera litura) in second or third instar were used instead of larvae of the diamondback moth in second or third instar, and the concentration of the active ingredient was changed from 10 ppm to 800 ppm or 1 ppm.
as §2

For the next series, the system named is Daphnia magna Straus. The series is described as follows: Acute Immobilisation Test against Daphnia magna Straus (Test Example 7-II). As to conditions: first instar larvae; up to 48 hours; 23±1° C.; OECD guideline; Probit method. The series is classed as in vivo. Here is the method:
An acetone solution of each compound was dispersed in water to obtain test solutions having various concentrations of the active ingredient. 250 ml of each test solution was introduced into a 430 ml glass beaker. Into each beaker, 10 first instar larvae born within 24 hours were released and kept at the solution temperature of 23±1° C. The immobilisation up to 48 hours after the release of the larvae was investigated in accordance with the OECD test guideline. The test was repeated 2-3 times in two series for each concentration. The 50% immobilisation concentration (EC50, ppb) was obtained by Probit method.

The subject of series [2] is diamondback moth (Plutella xylostella). The series is described as follows: Insecticidal test against diamondback moth (Test Example 2). It is filed as in vivo. The conditions noted are these: 168 h, second or third instar larvae, 7th day after release, 26° C.
Source text: as §1

In series [3] the test system is common cutworm (Spodoptera litura). The series is described as follows: Insecticidal test against common cutworm (Test Example 3). The series is classed as in vivo. As to conditions: 168 h, second or third instar larvae, 7th day after release.
Source text: as §1, §3

Series [4] relates to house fly (Musca domestica). The series is described as follows: Egg hatch inhibition test by the treatment of adults of house fly (Test Example 6). As to conditions: po, 100 μg/g in diet of adult females for 3 days, unhatched eggs assessed one day after collection, read-out: ratio of the egg hatch inhibition (REHI). The series is classed as in vivo. As to the method:
Sugar and skim milk were mixed in a weight ratio of 1:1, and 2 g of the mixture was put into a Petri dish having a diameter of 5.5 cm. 0.5 ml of an acetone solution containing the active ingredient was added to the mixture in the Petri dish. After acetone evaporated, the treated mixture was thoroughly mixed, and the concentration of the active ingredient was adjusted to 100 μg/g. Twenty non-mating females of house fly (Musca domestica) were allowed to feed on the poisoned diet (the treated mixture) in a cage. After 3 days, the diet was changed to the untreated mixture, then 20 non-mating males were released into the cage for mating. On the 3rd day after release, a cup of the medium for rearing fly larvae was set in the cage for oviposition for 7 hours. The egg laid on the medium were collected and kept on the moistened filter paper in a Petri dish. One day later, unhatched eggs were assessed and the ratio of the egg hatch inhibition (REHI) was calculated by the following equation: [formula]

For the molecule `O=C(NC(=O)c1c(F)cccc1F)Nc1ccc(Oc2ccc(C(F)(F)F)cc2Cl)c(F)c1` [drawing 47 (R=H), reference compound], the values for the minimal effective concentration with Diamondback moth and in the series with Common cutworm were 0.08 µg/mL and 0.04 µg/mL, respectively. In addition, the “Remaining rate in the soil” value in series [1] is 91%. Moreover, the “EC50 of Daphnia magna Straus (50% immobilisation concentration)” value (“EC50 … (50% immobilisation concentration)” below) in the series with Daphnia magna Straus is reported as less than 0.4 ppb.

With `CN(C(=O)NC(=O)c1c(F)cccc1F)c1ccc(-c2ccc(C(F)(F)F)cc2)cc1` [compound 108], the mortality (commonly the percentage killed) at 10 ppm in series [2] came out at 100%. In series [3], the mortality at 1 ppm was found to be 100% and the mortality at 800 ppm amounted to 100%. With `CN(C(=O)NC(=O)c1c(F)cccc1F)c1ccc(Oc2ccc(C(F)(F)F)cc2Cl)c(F)c1F` [Compound No. 5, N-[4-(2-chloro-4-trifluoromethylphenoxy)-2,3-difluorophenyl]-N'-(2,6-difluorobenzoyl)-N-methylurea], in series [4], the inhibition at 100 µg/g is 100%. For `CN(C(=O)NC(=O)c1c(F)cccc1F)c1ccc(Oc2ccc(C(F)(F)F)cc2Cl)cc1` [drawing 48 (R=CH3)], the minimal effective concentration with Diamondback moth and with Common cutworm was 0.02 µg/mL each time. Moreover, the “Remaining rate in the soil” value in series [1] is reported as 49%. Also, the “EC50 … (50% immobilisation concentration)” value in the series with Daphnia magna Straus was 50 ppb. In the case of `CN(C(=O)NC(=O)c1c(F)cccc1F)c1ccc(-c2ccc(Br)cc2)cc1` [Compound No. 29, N-(4'-bromo-4-biphenylyl)-N'-(2,6difluorobenzoyl)-N-methylurea], the inhibition at 100 µg/g in series [4] is 100%. Besides, the mortality at 1 ppm in series [3] was found to be 100%. For `CN(C(=O)NC(=O)c1c(F)cccc1F)c1ccc(Oc2ccc(S(=O)(=O)C(F)(F)F)cc2)cc1` [compound 41], the mortality at 10 ppm in series [2] amounted to 100%. On to `Cc1cc(Oc2ncc(C(F)(F)F)cc2Cl)ccc1N(C)C(=O)NC(=O)c1c(F)cccc1F` [compound 20, N-[4-(3-chloro-5-trifluoromethyl-2-pyridyloxy)-2-methylphenyl]-N'-(2,6-difluorobenzoyl)-N-methylurea], for which the inhibition at 100 µg/g in series [4] stood at 100%. In turn, `Cc1cc(N(C)C(=O)NC(=O)c2c(F)cccc2F)ccc1Oc1ncc(C(F)(F)F)cc1Cl` [Compound No. 76] registered a mortality at 10 ppm in series [2] of 100%.

Consider `CN(C(=O)NC(=O)c1c(F)cccc1F)c1ccc(Oc2ncc(C(F)(F)F)cc2Cl)c(Cl)c1` [compound 15, N-[3-chloro-4-(3-chloro-5-trifluoromethyl-2-pyridyloxy)-phenyl]-N'-(2,6-difluorobenzoyl)-N-methylurea], for which, in series [4], the inhibition at 100 µg/g was found to be 100%. Turning to `CN(C(=O)NC(=O)c1c(F)cccc1F)c1ccc(-c2ccc(Cl)cc2)c(F)c1` [Compound No. 31, N-[4'-chloro-2-fluoro-4biphenylyl)-N'-(2,6-difluorobenzoyl)-N-methylurea], the inhibition at 100 µg/g in series [4] came to 100%. Take `Cc1ccccc1C(=O)NC(=O)N(C)c1ccc(Oc2ccc(C(F)(F)F)cc2Cl)c(F)c1` [compound 63]: the mortality at 1 ppm in series [3] came to 100%. In series [3], `CN(C(=O)NC(=O)c1ccccc1Br)c1ccc(Oc2ncc(C(F)(F)F)cc2Cl)cc1` [Compound No. 80] gave a mortality at 1 ppm of 100%.

On to `O=C(NC(=O)c1c(F)cccc1F)Nc1ccc(-c2ccc(Br)cc2)cc1` [drawing 49 (R=H), reference compound], for which the minimal effective concentration (commonly the smallest amount tested that counted as effective) with Diamondback moth came to 0.3 µg/mL; in the series with Common cutworm it was 0.6 µg/mL. For the same molecule, the “Remaining rate in the soil” value in series [1] amounted to 77%. Further, the “EC50 … (50% immobilisation concentration)” value with Daphnia magna Straus was less than 0.8 ppb. The molecule `CN(C(=O)NC(=O)c1c(F)cccc1F)c1ccc(Oc2ccc([N+](=O)[O-])cc2Cl)cc1` [compound 62] came in with a mortality at 1 ppm in series [3] of 100%. In series [2], `CN(C(=O)NC(=O)c1c(F)cccc1F)c1ccc(Oc2ccc(C(F)(F)F)cc2)cc1` [compound 40] gave a mortality at 10 ppm of 90%. `CN(C(=O)NC(=O)c1c(F)cccc1F)c1ccc(N(C)c2ncc(C(F)(F)F)cc2Cl)cc1` [compound 125]: the mortality at 10 ppm in series [2] turned out to be 100%. Also, in series [3], the mortality at 1 ppm worked out at 100% and the mortality at 800 ppm was determined as 100%. As to `O=C(NC(=O)c1c(F)cccc1F)Nc1ccc(Oc2ccc(C(F)(F)F)cc2Cl)cc1` [drawing 48 (R=H), reference compound], the minimal effective concentration in the series on Diamondback moth and with Common cutworm was 0.08 µg/mL in each case. Further, the “Remaining rate in the soil” value in series [1] came out at 84%. Moreover, the “EC50 … (50% immobilisation concentration)” value in the series on Daphnia magna Straus is less than 0.4 ppb.

For the molecule `Cc1ccc(N(C)C(=O)NC(=O)c2c(F)cccc2F)cc1Oc1ccc(C(F)(F)F)cc1Cl` [compound 115], the mortality at 1 ppm in series [3] stood at 100%. Take `Cc1cc(N(C)C(=O)NC(=O)c2c(F)cccc2F)cc(C)c1Oc1ccc(C(F)(F)F)cc1Cl` [compound 65]: the mortality at 1 ppm in series [3] was 100%. The same measure, in the same setting: to `Cc1ccccc1C(=O)NC(=O)N(C)c1cc(C)c(Oc2ccc(C(F)(F)F)cc2Cl)c(C)c1` [compound 66] belongs 100%. Regarding `CN(C(=O)NC(=O)c1c(F)cccc1F)c1ccc(N(C)c2ccc(C(F)(F)F)cc2Cl)cc1` [compound 126], the mortality at 10 ppm in series [2] stood at 100%. For the same molecule, in series [3], the mortality at 1 ppm was 100% and the mortality at 800 ppm was 100%.

`CN(C(=O)NC(=O)c1c(F)cccc1F)c1ccc(Oc2ncc(Cl)cc2C(F)(F)F)cc1` [compound 74] showed a mortality at 1 ppm in series [3] of 100%.

Consider `CN(C(=O)NC(=O)c1c(F)cccc1F)c1ccc(-c2ccc(Br)cc2)cc1` [drawing 49 (R=CH3)], for which the values for the minimal effective concentration in the series with Diamondback moth and with Common cutworm were 0.02 µg/mL and 0.04 µg/mL, respectively. For the same molecule, the “Remaining rate in the soil” value in series [1] stood at 45%. For the same molecule, the “EC50 … (50% immobilisation concentration)” value in the series with Daphnia magna Straus came out at 150 ppb. Take `COc1cc(N(C)C(=O)NC(=O)c2c(F)cccc2F)ccc1Oc1ncc(C(F)(F)F)cc1Cl` [compound 75]: in series [2], the mortality at 10 ppm is 90%. Further, in series [3], the mortality at 1 ppm came out at 90%. The molecule `Cc1cc(-c2ccc(Br)cc2)ccc1N(C)C(=O)NC(=O)c1c(F)cccc1F` [compound 109] yielded a mortality at 10 ppm in series [2] of 100%. In series [3], this molecule yielded a mortality at 1 ppm of 100% and a mortality at 800 ppm of 100%. With `CN(C(=O)NC(=O)c1c(F)cccc1F)c1ccc(Oc2ccc(SC(F)(F)F)cc2)cc1` [compound 39], the mortality at 10 ppm in series [2] is 100%. Regarding `CN(C(=O)NC(=O)c1c(F)cccc1F)c1ccc(Oc2ccc(C(F)(F)F)cc2Cl)c(F)c1` [drawing 47 (R=CH3)], the minimal effective concentration turned out to be 0.08 µg/mL in the series with Diamondback moth and 0.04 µg/mL in the series on Common cutworm. Moreover, the “Remaining rate in the soil” value in series [1] is on record as 76%. Moreover, the “EC50 … (50% immobilisation concentration)” value in the series with Daphnia magna Straus amounted to 150 ppb. In series [2], `Cc1cc(N(C)C(=O)NC(=O)c2ccccc2Cl)ccc1Oc1ncc(C(F)(F)F)cc1Cl` [compound 77, N-{4-[3-chloro-5-trifluoromethyl-2-pyridyloxy]-3-methylphenyl}-N'-(2-chlorobenzoyl)-N-methylurea] gave a mortality at 10 ppm of 100%. For the molecule `Cc1cc(N(C)C(=O)NC(=O)c2ccccc2C)ccc1Oc1ccc(C(F)(F)F)cc1Cl` [compound 64], the mortality at 1 ppm in series [3] was 90%.
